Results as given in article PMC7482817 (Theranostics, 2020).

Key:
E. coli B2 (mcr-1) [1] = test: Broth microdilution MIC and checkerboard assay; format: cell-based, Escherichia coli; conditions: for MIC of antibiotic in the absence of melatonin: antibiotic alone, MHB; for Potentiation (fold): degree of colistin potentiation in the presence of sub-MIC of melatonin and its analogues: colistin plus sub-MIC of the analogue
E. coli B2 (mcr-1) [2] = test: Mouse peritonitis-sepsis infection model; format: in vivo, BALB/c mice; conditions: single i.p. dose 1 h post-infection: colistin 10 mg/kg, melatonin 50 mg/kg, or combinations 5 + 50, 10 + 20, 10 + 50 mg/kg; 7 days; n = 8 or 9
Method: 6-8-week-old female BALB/c mice were obtained from Comparative Medicine Centre of Yangzhou University (Jiangsu, China). Mice were adapted for one week prior to infection. Mouse studies were performed in accordance with the relevant guidelines and regulations (ID: SCXK-2017-0007). The laboratory animal usage license number is SCXK-2017-0044, certified by Jiangsu Association for Science and Technology.
Female BALB/c mice (n = 8 or 9 per group) were intraperitoneally infected with a dose of 3.0 × 10^8 CFUs E. coli B2 suspension. […] Survival rates of mice were recorded for 7 days.

E. coli B2 [3] = test: Intracellular SOD activity; conditions: colistin with or without melatonin 500 μg/mL, or melatonin alone
resistant bacteria = test: Potentiation of colistin, summary over resistant strains; format: cell-based; conditions: in resistant bacteria
E. coli B2 [4] = test: H2O2 production (Hydrogen Peroxide Assay Kit); format: cell-based, Escherichia coli; conditions: melatonin in single or combination treatment with colistin; 1 h
Method: (§1) 2′,7′-dichlorodihydrofluorescein diacetate (DCFH-DA, 10 μM) was applied to monitor levels of ROS in E. coli B2 [38], following the manufacturer's instruction (Beyotime). Fluorescence intensity was measured with the excitation wavelength of 488 nm and emission wavelength of 525 nm. […] After incubation for one hour, the absorbance of lysis buffer at 570 nm was measured.

E. coli B2 (mcr-1) [5] = test: Time-dependent killing; format: cell-based, Escherichia coli; conditions: melatonin 1 mg/mL or colistin 2 μg/mL alone, 24 h
Method: Overnight E. coli B2 were diluted 1/1,000 in MHB, and incubated for 4 h (exponential phase) or 8 h (stationary phase) at 37 °C. […] At intervals, 100 μL aliquots were removed, centrifuged and resuspended in 100 μL sterile PBS. Subsequently, ten-fold serially diluted suspensions were plated on MHA plates and incubated overnight at 37 °C. Bacterial colonies were counted and the primary CFUs/mL was calculated.

E. coli B2 (mcr-1) [6] = test: Membrane depolarization (DiSC3(5)); format: cell-based, Escherichia coli; conditions: melatonin 0 to 1,000 μg/mL alone, or 500 μg/mL added to colistin; 1 h
Method: (§2) Pretreatments of biochemical assays were performed using similar protocols as follows. Overnight E. coli B2 were washed, suspended in 5 mM HEPES (pH 7.0, plus 5 mM glucose) with an OD600 of 0.5, and incubated with fluorescent dyes for 30 min. […] After incubation at 37 °C for 1 hour, fluorescence intensity or absorbance or luminescence was measured by an Infinite M200 Microplate reader (Tecan).
3, 3-dipropylthiadicarbocyanine iodide (DiSC3(5), 0.5 μM) was applied to determine the membrane potential. Dissipated membrane potential of E. coli B2 was measured with the excitation wavelength of 622 nm and emission wavelength of 670 nm.

E. coli = test: Colistin intracellular accumulation by LC-MS/MS; format: cell-based, Escherichia coli; conditions: co-incubation with varying doses of melatonin
HEK293T cells = test: Cytotoxicity, WST-1 assay; format: cell-based, Human; conditions: colistin 0 to 128 μg/mL with melatonin 0 to 1,000 μg/mL, 24 h
Method: (§3) Cytotoxicity on CHO and HEK293T cells was determined using the water-soluble tetrazolium salt-1 (WST-1, Roche, Switzerland) assay [35].

E. coli B2 [7] = test: Total ROS (DCFH-DA); format: cell-based, Escherichia coli; conditions: 1 h, colistin with or without melatonin 500 μg/mL, or melatonin alone
Method: as §2, §1

CHO cells = test: Cytotoxicity, WST-1 assay; format: cell-based, Chinese Hamster; conditions: colistin 0 to 128 μg/mL with melatonin 0 to 1,000 μg/mL, 24 h
Method: as §3

[8] = tested on: thirteen clinical colistin-resistant E. coli from elk
[9] = tested on: mcr-1 expression in E. coli B2; format: cell-based, Escherichia coli; conditions: melatonin with or without colistin
E. coli G92 (mcr-1) = test: Broth microdilution MIC and checkerboard assay; format: cell-based, Escherichia coli
S. enterica ATCC 13076 = test: Broth microdilution MIC and checkerboard assay; format: cell-based
E. coli CP131 (mcr-3) = test: Broth microdilution MIC and checkerboard assay; format: cell-based, Escherichia coli
E. coli C3 = test: Broth microdilution MIC and checkerboard assay; format: cell-based, Escherichia coli
[10] = tested on: K. pneumoniae D120 (mcr-8); test: Broth microdilution MIC and checkerboard assay; format: cell-based
E. coli MG1655 = test: Broth microdilution MIC and checkerboard assay; format: cell-based, Escherichia coli
E. coli ATCC 25922 = test: Broth microdilution MIC and checkerboard assay; format: cell-based, Escherichia coli
E. coli G6 = test: Broth microdilution MIC and checkerboard assay; format: cell-based, Escherichia coli
E. coli MG1655 (ΔkatE) = test: Broth microdilution MIC and checkerboard assay
[11] = antibiotic plus sub-MIC melatonin
[12] = antibiotic with melatonin, checkerboard, two biological replicates
[13] = melatonin or analogue with colistin, checkerboard 8 × 8, 18 h, means of two biological replicates, synergy FIC index ≤ 0.5

CC1(C)S[C@@H]2[C@H](NC(=O)[C@H](N)c3ccccc3)C(=O)N2[C@H]1C(=O)O [Ampicillin]
MIC of antibiotic in the absence of melatonin (E. coli B2 (mcr-1) [1]; 18 h, 37 °C): 128 µg/mL
MIC of antibiotic in the presence of sub-MIC of melatonin (E. coli B2 (mcr-1) [1]; [11]): 128 µg/mL
FIC index (E. coli B2 (mcr-1) [1]; [12]): 2

NCCc1c[nH]c2ccc(O)cc12 [Analogue 1, Serotonin]
Potentiation (fold): degree of colistin potentiation in the presence of sub-MIC of melatonin and its analogues (E. coli B2 (mcr-1) [1]): 8 fold
FIC index (E. coli B2 (mcr-1) [1]; [13]): 0.188

NCCc1c[nH]c2ccccc12 [Analogue 2, Tryptamine]
Potentiation (fold): degree of colistin potentiation in the presence of sub-MIC of melatonin and its analogues (E. coli B2 (mcr-1) [1]): 32 fold
FIC index (E. coli B2 (mcr-1) [1]; [13]): 0.156

N[C@@H](Cc1c[nH]c2ccc(O)cc12)C(=O)O [Analogue 3, 5-Hydroxy-L-tryptophan]
Potentiation (fold): degree of colistin potentiation in the presence of sub-MIC of melatonin and its analogues (E. coli B2 (mcr-1) [1]): 2 fold
FIC index (E. coli B2 (mcr-1) [1]; [13]): 1

N[C@@H](Cc1c[nH]c2ccccc12)C(=O)O [Analogue 4, L-tryptophan]
Potentiation (fold): degree of colistin potentiation in the presence of sub-MIC of melatonin and its analogues (E. coli B2 (mcr-1) [1]): 1 fold
FIC index (E. coli B2 (mcr-1) [1]; [13]): 2

CC(=O)NCCc1c[nH]c2ccc(O)cc12 [Analogue 5, N-acetyl-5-hydroxytryptamine]
Potentiation (fold): degree of colistin potentiation in the presence of sub-MIC of melatonin and its analogues (E. coli B2 (mcr-1) [1]): 32 fold
FIC index (E. coli B2 (mcr-1) [1]; [13]): 0.094

COc1ccc2[nH]cc(CCN)c2c1 [Analogue 6, 5-Methoxytryptamine]
Potentiation (fold): degree of colistin potentiation in the presence of sub-MIC of melatonin and its analogues (E. coli B2 (mcr-1) [1]): 32 fold
FIC index (E. coli B2 (mcr-1) [1]; [13]): 0.156

c1ccc2[nH]ccc2c1 [Analogue 7, Indole]
Potentiation (fold): degree of colistin potentiation in the presence of sub-MIC of melatonin and its analogues (E. coli B2 (mcr-1) [1]): 8 fold

NCCc1c[nH]cn1 [Analogue 8, Histamine]
FIC index (E. coli B2 (mcr-1) [1]; [13]): >4

C[C@H]1c2cccc(O)c2C(=O)C2=C(O)[C@]3(O)C(=O)C(C(N)=O)=C(O)[C@@H](N(C)C)[C@@H]3[C@@H](O)[C@@H]21 [Doxycycline]
MIC of antibiotic in the absence of melatonin (E. coli B2 (mcr-1) [1]; 18 h, 37 °C): 32 µg/mL
MIC of antibiotic in the presence of sub-MIC of melatonin (E. coli B2 (mcr-1) [1]; [11]): 4 µg/mL
Potentiation (fold): degree of antibiotics potentiation in the presence of sub-MIC of melatonin (E. coli B2 (mcr-1) [1]; [11]): 8 fold
FIC index (E. coli B2 (mcr-1) [1]; [12]): 0.250

COc1ccc2[nH]cc(CCNC(C)=O)c2c1 [Melatonin, N-acetyl-5-methoxytryptamine]
survival of mice after lethal infection (E. coli B2 (mcr-1) [2]): did not prevent a lethal infection
SOD activity (E. coli B2 [3]): had no direct effect on the total ROS level and SOD activity
potentiation with colistin (resistant bacteria): 8 to 32 fold
production of H2O2 (E. coli B2 [4]): significantly promoted production of H2O2 in a dose-dependent manner
killing of exponentially growing or stationary E. coli B2 by monotreatment (E. coli B2 (mcr-1) [5]): neither melatonin nor colistin monotreatment killed
cytoplasmic membrane potential (DiSC3(5)) (E. coli B2 (mcr-1) [6]): caused dissipation of the cytoplasmic membrane potential
intracellular colistin accumulation (E. coli): enhanced colistin in cells in a dose-dependent manner
effect of melatonin on cytotoxicity of colistin (HEK293T cells): slightly reduced the cytotoxicity of colistin
total ROS level (E. coli B2 [7]): had no direct effect on the total ROS level and SOD activity
effect of melatonin on cytotoxicity of colistin (CHO cells): slightly reduced the cytotoxicity of colistin
synergistic activity with colistin [8]: synergistic activity was also evidenced
mcr-1 expression [9]: down-regulated in the presence of melatonin

C[C@@H](O)[C@H]1C(=O)N2C(C(=O)O)=C(S[C@@H]3CN[C@H](C(=O)N(C)C)C3)[C@H](C)[C@H]12 [Meropenem]
MIC of antibiotic in the absence of melatonin (E. coli B2 (mcr-1) [1]; 18 h, 37 °C): 32 µg/mL
MIC of antibiotic in the presence of sub-MIC of melatonin (E. coli B2 (mcr-1) [1]; [11]): 32 µg/mL
FIC index (E. coli B2 (mcr-1) [1]; [12]): 2

CO[C@H]1/C=C/O[C@@]2(C)Oc3c(C)c(O)c4c(O)c(c(/C=N/N5CCN(C)CC5)c(O)c4c3C2=O)NC(=O)/C(C)=C\C=C\[C@H](C)[C@H](O)[C@@H](C)[C@@H](O)[C@@H](C)[C@H](OC(C)=O)[C@@H]1C [Rifampicin]
MIC of antibiotic in the absence of melatonin (E. coli B2 (mcr-1) [1]; 18 h, 37 °C): 128 µg/mL
MIC of antibiotic in the presence of sub-MIC of melatonin (E. coli B2 (mcr-1) [1]; [11]): 128 µg/mL
FIC index (E. coli B2 (mcr-1) [1]; [12]): 2

Colistin
MIC of colistin in the presence of sub-MIC of melatonin (E. coli G92 (mcr-1)): 0.5 µg/mL
MIC of colistin in the absence of melatonin (E. coli G92 (mcr-1); MCR-positive): 4 µg/mL
MIC of colistin in the presence of sub-MIC of melatonin (S. enterica ATCC 13076; S. enterica ATCC 13076): 0.0156 µg/mL
MIC of colistin in the absence of melatonin (S. enterica ATCC 13076; S. enterica ATCC 13076, MCR-negative): 0.125 µg/mL
survival of mice after lethal infection (E. coli B2 (mcr-1) [2]): did not prevent a lethal infection
MIC of colistin in the presence of sub-MIC of melatonin (E. coli CP131 (mcr-3)): 0.5 µg/mL
MIC of colistin in the absence of melatonin (E. coli CP131 (mcr-3); MCR-positive): 4 µg/mL
MIC of colistin in the presence of sub-MIC of melatonin (E. coli C3; E. coli C3): 0.0312 µg/mL
MIC of colistin in the absence of melatonin (E. coli C3; E. coli C3, MCR-negative): 0.125 µg/mL
killing of exponentially growing or stationary E. coli B2 by monotreatment (E. coli B2 (mcr-1) [5]): neither melatonin nor colistin monotreatment killed
MIC of colistin in the presence of sub-MIC of melatonin [10]: 0.5 µg/mL
MIC of colistin in the absence of melatonin ([10]; MCR-positive): 4 µg/mL
MIC of colistin in the presence of sub-MIC of melatonin (E. coli MG1655; E. coli MG1655): 0.0156 µg/mL
MIC of colistin in the absence of melatonin (E. coli MG1655; E. coli MG1655, MCR-negative): 0.0625 µg/mL
MIC of colistin in the presence of sub-MIC of melatonin (E. coli ATCC 25922; E. coli ATCC 25922): 0.125 µg/mL
MIC of colistin in the absence of melatonin (E. coli ATCC 25922; E. coli ATCC 25922, MCR-negative): 0.5 µg/mL
MIC of antibiotic in the absence of melatonin (E. coli B2 (mcr-1) [1]; 18 h, 37 °C): 8 µg/mL
MIC of antibiotic in the presence of sub-MIC of melatonin (E. coli B2 (mcr-1) [1]; [11]): 0.25 µg/mL
MIC^a of colistin in the absence of melatonin and its analogues (E. coli B2 (mcr-1) [1]; colistin alone, broth micro-dilution in MHB, 18 h, 37 °C): 8 μg/mL
MIC of colistin in the presence of sub-MIC of melatonin (E. coli G6; E. coli G6): 0.0156 µg/mL
MIC of colistin in the absence of melatonin (E. coli G6; E. coli G6, MCR-negative): 0.125 µg/mL
MIC of colistin in the presence of sub-MIC of melatonin (E. coli MG1655 (ΔkatE)): 0.0078 µg/mL
